Molecules are shown by their SMILES.

Assay [1] has as its target apamine binding sites in bovine cerebral membranes (apamine-sensitive potassium channels). Put plainly: Binding of ^125 I-apamine to bovine cerebral membranes. As to conditions: ^125 I-apamine 30 pM; calf hippocampus membranes; pH 7.4; 60 min on ice. The method, then:
1) Binding of ^125 I-apamine to bovine cerebral membranes
Calfbrains were obtained from the local abattoir. The hippocampus was prepared on ice and a membrane suspension was made up by homogenization twice in buffer (100 mM Tris-HCl, KCl 5 mM, pH 7.4) and centrifugation at 43,000×g. In a total volume of 500 μl, the incubation mixture contained 200 μg of membrane protein, 30 pM ^125 I-apamine and test substances in the concentration range 1×10^-9 to 1×10^-4 M. The non-specific binding of ^125 I-apamine was determined in the presence of 1×10^-7 M unlabelled apamine.
After preincubation for 30 min at room temperature (test substances and membrane homogenate), the samples were placed on ice for 10 min before the radioligand was added. The main incubation time was 60 min on ice. When the reaction time had elapsed, an excess of ice-cooled incubation buffer was added to each sample and the mixture was filtered with suction through cellulose acetate/nitrate membrane filters. The amount of bound ^125 I-apamine was measured with a gamma counter.

Assay [2] has as its system apamine-sensitive rubidium efflux in PC12 cells (potassium channels). Put plainly: Non-radioactive Rb+ efflux assay for the identification of potassium channel modulators. The format is cell-based. Particulars: Rattus norvegicus, PC-12, 10 min, at a test concentration of 10 μM, 50 mM KCl depolarization. The method, then: 2) Non-radioactive Rb^+ efflux assay for the identification of potassium channel modulators
The potassium in PC12 cells is exchanged with rubidium, which is not present in the cells. This exchange is performed by incubating the cells over a period of 4 h in a physiological buffer containing 5.4 mM RbCl without KCl. This rubidium subsequently serves as a tracer for potassium.
The cells laden with Rb^+ in this way are washed three times and then stimulated by depolarization with 50 mM KCl to open potassium channels (10 min), causing Rb^+ to flow out of the cells into the supernatant according to the concentration gradient.
The rubidium contents in the cell supernatant and in the residual cells after they have been lysed with 1% Triton X-100 are then determined by means of atomic absorption spectroscopy. The relative proportion of rubidium in the cell supernatant (=Rb^+ efflux) is used as a measure of the potassium channel activity.
The effect of substances on the channel activity is measured by co-incubating the test substance over the ten-minute stimulation period and determining its effect on the Rb^+ efflux in the manner described above.

As for `Cc1cc(N2CCCN(c3cc(C)nc4c(C)cccc34)CC2)c2cccc(C)c2n1` [Example 12], the Ki – broadly, the equilibrium dissociation constant of an inhibitor or competing ligand from its target – in assay [1] worked out at 0.035 µM. Moreover, the inhibition – broadly, the change of the read-out against control, counted positive when it falls – at 10 µM in assay [2] was determined as 73%. For `c1ccc2c(N3CCCN(c4ccnc5ccccc45)CC3)ccnc2c1` [Example 1], the Ki in assay [1] was 0.78 µM.

For `Cc1cc(N2CCCN(c3cc(C)nc4cccc(O)c34)CC2)c2c(O)cccc2n1` [Example 7], in assay [2], the inhibition at 10 µM was 58%.
